Experimental data reported in patent publication US7045532B2 (Millennium Pharmaceuticals, Inc., priority 1999, dated 2006).
Like-named read-outs stand apart in the source and are kept apart here.

Target: T1, ACE-2 (Homo sapiens, UniProt Q9BYF1)
T1 construct: a stop codon inserted after the serine immediately preceding the transmembrane domain; made in house; host or cells: CHO K1 cells (transient transfection, purified from conditioned medium)
Experiment: ACE-2 Competitive Substrate Assay (ACS Assay)
Format: biochemical

[1] = Ki class, compounds tested in 5% DMSO, 12 compound concentrations, Ki=Kiapp/(1+[S]/Km), read-out: Human ACE-2 Activity
[2] = Table 3, very good ACE-2 inhibiting compounds, species not given, read-out: ACE-2 Activity, Ki
[3] = Ki class per key, compounds tested in 5% DMSO, 12 compound concentrations, 25° C., Ki=Kiapp/(1+[S]/Km), read-out: Human ACE-2 Activity

T1 sequence (Q9BYF1 18-740 limits assumed): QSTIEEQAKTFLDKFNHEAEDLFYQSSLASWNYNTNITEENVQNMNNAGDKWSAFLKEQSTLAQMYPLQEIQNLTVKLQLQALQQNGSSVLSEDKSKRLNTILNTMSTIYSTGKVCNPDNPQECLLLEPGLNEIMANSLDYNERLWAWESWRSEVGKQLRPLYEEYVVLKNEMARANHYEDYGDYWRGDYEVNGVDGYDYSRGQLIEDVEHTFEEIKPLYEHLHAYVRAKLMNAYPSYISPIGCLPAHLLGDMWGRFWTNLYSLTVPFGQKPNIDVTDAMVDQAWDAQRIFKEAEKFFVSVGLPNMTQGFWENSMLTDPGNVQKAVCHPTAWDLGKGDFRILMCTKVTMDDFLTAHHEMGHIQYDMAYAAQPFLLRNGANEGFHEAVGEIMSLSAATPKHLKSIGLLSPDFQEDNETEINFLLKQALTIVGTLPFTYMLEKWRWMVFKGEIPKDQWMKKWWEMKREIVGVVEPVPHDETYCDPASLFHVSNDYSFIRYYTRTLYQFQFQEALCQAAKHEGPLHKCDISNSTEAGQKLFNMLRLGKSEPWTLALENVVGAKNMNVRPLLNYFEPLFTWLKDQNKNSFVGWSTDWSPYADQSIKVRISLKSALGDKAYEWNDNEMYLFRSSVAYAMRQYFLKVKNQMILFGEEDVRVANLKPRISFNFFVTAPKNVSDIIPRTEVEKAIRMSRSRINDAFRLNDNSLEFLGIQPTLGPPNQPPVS

Row | Ki [1] [µM] | Ki [2] [µM] | Structure (SMILES) | further results
1 | < 0.1 |  | CCC(CC)Cn1cncc1C[C@H](NC(CC(C)C)C(=O)O)C(=O)O (single isomer, unassigned) [JM, 2-[1-Carboxy-2-[3-(2-ethylbutyl)-3H-imidazol-4-yl]-ethylamino]-4-methyl-pentanoic acid] | 
2 | < 0.1 | 0.05 to 0.1 | CC(C)C[C@H](N[C@@H](Cc1cccc(OCc2cccc(Cl)c2)c1)C(=O)O)C(=O)O [OO, S,S-2-{1-Carboxy-2-[3-(3-chloro-benzyloxy)-phenyl]-ethylamino}-4-methyl-pentanoic acid] | 
3 | > 0.5 |  | Cc1cccc(Cn2cncc2C[C@H](NC(CC(C)C)C(=O)O)C(=O)O)c1 (single isomer, unassigned) [HP, 2-[1-Carboxy-2-[3-(3-methyl-benzyl)-3H-imidazol-4-yl]-ethylamino]4-methyl-pentanoic acid] | 
4 |  | < 0.05 | CC(C)C[C@H](N[C@@H](Cc1ccc(C(=O)C(F)(F)F)n1CCC1CCCCC1)C(=O)O)C(=O)O [QZ, 2-[1-Carboxy-2-[1-(2-cyclohexyl-ethyl)-5-(2,2,2-trifluoro-acetyl)-1H-pyrrol-2-yl]-ethylamino]-4-methylpentanoic acid] | Ki [3]: < 0.1 µM
5 | 0.1 to 0.5 |  | CC(C)C[C@H](N[C@@H](Cn1ccn(-c2cc(F)cc(F)c2)c1=O)C(=O)O)C(=O)O [MS, 2-{1-Carboxy-2-[3-(3,5-difluoro-phenyl)-2-oxo-2,3-dihydro-imidazol-1-yl]-ethylamino}-4-methyl-pentanoic acid] | 
6 | > 0.5 |  | CC(C)C[C@H](N[C@@H](CCNC(=O)c1cccc(Cl)c1)C(=O)O)C(=O)O [KP, (S,S)-2-[1-Carboxy-3-(3-chloro-benzoylamino)-propylamino]-4-methyl-pentanoic acid] | 
7 |  | < 0.05 | O=C(O)[C@H](CCc1ccccc1)N[C@@H](Cc1cncn1Cc1cc(Cl)cc(Cl)c1)C(=O)O [PN, (S,S) 2-{1-Carboxy-2-[3-(3,5-dichloro-benzyl)-3H-imidazol-4-yl]-ethylamino}-4-phenyl-butyric acid] | Ki [3]: < 0.1 µM
8 | < 0.1 | 0.05 to 0.1 | CC(C)C[C@H](N[C@@H](Cc1ccc(-c2ccsc2)cc1)C(=O)O)C(=O)O [NF, (S,S)-2-[1-Carboxy-2-(4-thiophen-3-yl-phenyl)-ethylamino]-4-methyl-pentanoic acid] | 
9 | 0.1 to 0.5 |  | CCOc1ccc2nc(NC(=O)C[C@H](N[C@@H](CC(C)C)C(=O)O)C(=O)O)sc2c1 [MP, (S,S)-2-[1-Carboxy-2-(6-ethoxy-benzothiazol-2-ylcarbamoyl)-ethylamino]-4-methyl-pentanoic acid] | 
10 | > 0.5 |  | CC(C)CC(N[C@@H](Cc1cncn1Cc1ccc(C(C)(C)C)cc1)C(=O)O)C(=O)O (single isomer, unassigned) [HZ, 2-[2-[3-(4-tert-Butyl-benzyl)-3H-imidazol-4-yl]-1-carboxy-ethylamino]-4-methyl-pentanoic acid] | 
11 |  | < 0.05 | CC(C)C[C@H](N[C@@H](Cc1ccc(-c2csc3ccccc23)cc1)C(=O)O)C(=O)O [PA, 2-[2-(4-Benzo[b]thiophen-3-yl-phenyl)-1-carboxy-ethylamino]-4-methyl-pentanoic acid] | Ki [3]: < 0.1 µM
12 | > 0.5 |  | Cc1ccccc1Cn1cncc1C[C@H](NC(CC(C)C)C(=O)O)C(=O)O (single isomer, unassigned) [HX, 2-[1-Carboxy-2-[3-(2-methyl-benzyl)-3H-imidazol-4-yl]-ethylamino]4-methyl-pentanoic acid] | 
13 | > 0.5 |  | CC(C)CC(N[C@@H](Cc1cncn1Cc1ccc([N+](=O)[O-])cc1)C(=O)O)C(=O)O (single isomer, unassigned) [ID, 2-[1-Carboxy-2-[3-(4-nitro-benzyl)-3H-imidazol-4-yl]-ethylamino]-4-methyl-pentanoic acid] | 
14 |  | 0.05 to 0.1 | CCOc1ccnc(-c2ccc(C[C@H](N[C@@H](CC(C)C)C(=O)O)C(=O)O)cc2)c1Cl [QB, (S,S)-2-{1-Carboxy-2-[4-(3-chloro-4-ethoxy-pyridin-2-yl)-phenyl]-ethylamino}-4-methyl pentanoic acid] | Ki [3]: < 0.1 µM
15 |  | < 0.05 | CC(C)C[C@H](N[C@@H](Cc1ccc(-c2cnc3ccccc3c2)cc1)C(=O)O)C(=O)O [QC, (S,S)-2-[1-Carboxy-2-(4-quinolin-3-yl-phenyl)-ethylamino]-4-methyl-pentanoic acid] | Ki [3]: < 0.1 µM
16 |  | < 0.05 | CC(C)C[C@H](N[C@@H](Cc1ccc(-c2ccc(F)cc2)cc1)C(=O)O)C(=O)O [OY, (S,S)-[1-Carboxy-2-(4′-fluoro-biphenyl-4-yl)-ethylamino]-4-methyl-pentanoic acid] | Ki [3]: < 0.1 µM
17 | 0.1 to 0.5 |  | Cc1c(Cn2cncc2C[C@H](NC(CC(C)C)C(=O)O)C(=O)O)cccc1-c1ccccc1 (single isomer, unassigned) [IQ, 2-[1-Carboxy-2-[3-(2-methyl-biphenyl-3-ylmethyl)-3H-imidazol-4-yl]-ethylamino]-4-methyl-pentanoic acid] | 
18 | 0.1 to 0.5 |  | CC(C)C[C@H](N[C@@H](Cc1ccc(OCc2ccccc2)cc1)C(=O)O)C(=O)O [KQ, S,S-2-[2-(4-Benzyloxy-phenyl)-1-carboxy-ethylamino-]4-methyl-pentanoic acid] | 
19 | > 0.5 |  | CC(C)CC(N[C@@H](Cc1cncn1Cc1ccc2c(c1)OCO2)C(=O)O)C(=O)O (single isomer, unassigned) [JF] | 
20 | 0.1 to 0.5 |  | CC(C)C[C@H](N[C@@H](Cc1cccc(OCc2ccc(Cl)cc2)c1)C(=O)O)C(=O)O [OB, 2-[1-Carboxy-2-[3-(4-chloro-benzyloxy)-phenyl)-ethylamino]-4-methyl-pentanoic acid] | 
21 | 0.1 to 0.5 |  | CC(C)C[C@H](N[C@@H](CN1CCN(Cc2cc(F)cc(F)c2)C1=O)C(=O)O)C(=O)O [LR, 2-[1-Carboxy-2-[3-(3,5-difluoro-benzyl)-2-oxo-imidazolidin-1-yl]-ethylamino]-4-methyl-pentanoic acid] | 

More lines, now with the values behind:

Row | Structure (SMILES) | Ki [1] [µM] | Ki [2] [µM] | further results
22 | C[C@@H](N[C@@H](CCCNC(=N)N)C(=O)O)C(=O)O [I, 2-(1-Carboxy-ethylamino)-5-guanidino-pentanoic acid] |  |  | Ki (Ki class, compounds tested in 5% DMSO, 12 concentrations, read-out: Human ACE-2 Activity): > 0.5 µM
23 | Cc1ccc(-c2nc(C[C@H](N[C@@H](CC(C)C)C(=O)O)C(=O)O)cs2)cc1 [KK, (S,S)-2-[1-Carboxy-2-(2-p-tolyl-thiazol-4-yl)-ethylamino]-4-methyl-pentanoic acid] | < 0.1 | < 0.05 | 
24 | COC(=O)[C@H](Cc1cccc(O)c1)N[C@@H](CC(C)C)C(=O)OCc1ccccc1 [LK, 2-[2-(3-Hydroxy-phenyl)-1-methoxycarbonyl-ethylamino]-4-methyl-pentanoic acidbenzyl ester] | > 0.5 |  | 
25 | CC(C)C[C@H](N[C@@H](Cc1ccc(Oc2cc(Cl)cc(Cl)c2)cc1)C(=O)O)C(=O)O [QM] |  |  | Ki [3]: 0.1 to 0.5 µM
26 | COC(=O)[C@@H](Cc1cccc(O)c1)N[C@@H](CC(C)C)C(=O)OCc1ccccc1 [LL, 2-[2-(3-Hydroxy-phenyl)-1-methoxycarbonyl-ethylamino]-4-methyl-pentanoic acid benzylester] | > 0.5 |  | 
27 | COc1ccccc1C(=O)Nc1ccc(C[C@H](N[C@@H](CC(C)C)C(=O)O)C(=O)O)cc1 [RB, 2-[1-Carboxy-2-[4-(2-methoxy-benzoylamino)-phenyl]-ethylamino]-4-methyl-pentanoic acid] |  | < 0.05 | Ki [3]: < 0.1 µM
28 | CC(C)C[C@H](N[C@@H](CN1CCN(c2cc(F)cc(F)c2)C1=O)C(=O)O)C(=O)O [NC, 2-{1-Carboxy-2-[3-(3,5-difluoro-phenyl)-2-oxo-imidazolidin-1-yl]-ethylamino}-4-methyl-pentanoic acid] | > 0.5 |  | 
29 | CC(C)C[C@H](N[C@@H](Cc1cccc(Cc2cccc(Cl)c2)c1)C(=O)O)C(=O)O [PF, 2-[1-Carboxy-2-[3-(3-chloro-benzyl)-phenyl]-ethylamino]-4-methyl-pentanoic acid] |  |  | Ki [3]: 0.1 to 0.5 µM
30 | CCCCOC(=O)[C@H](Cc1cncn1Cc1cc(Cl)cc(Cl)c1)N[C@@H](CC(C)C)C(=O)O [LD, (S,S) 2-{1-Butoxycarbonyl-2-[3-(3,5-dichloro-benzyl)-3H-imidazol-4-yl]-ethylamino}-4-methyl-pentanoic acid] | < 0.1 |  | 
31 | CC(C)CC(N[C@@H](Cc1cncn1Cc1ccc(OC(F)(F)F)cc1)C(=O)O)C(=O)O (single isomer, unassigned) [HT, 2-[1-Carboxy-2-[3-(4-trifluoromethoxy-benzyl)-3H-imidazol-4-yl]-ethylamino]-4-methyl-pentanoic acid] | > 0.5 |  | 
32 | CC(C)CC(N[C@@H](Cc1cncn1Cc1cccc(Cl)c1)C(=O)O)C(=O)O (single isomer, unassigned) [HD, 2-{1-Carboxy-2-[3-(3-chloro-benzyl)-3H-imidazol-4-yl]-ethylamino)4-methyl-pentanoic acid] | > 0.5 |  | 
33 | CC(C)COc1cccc(C[C@H](N[C@@H](CC(C)C)C(=O)O)C(=O)O)c1 [ON, 2-[1-Carboxy-2-(3-isobutoxy-phenyl)-ethylamino]-4-methyl-pentanoic acid] | > 0.5 |  | 
34 | Cc1ccc(-c2ccc(C[C@H](N[C@@H](CC(C)C)C(=O)O)C(=O)O)o2)cc1 [NO, (S,S)-2[1-Carboxy-2-(5-p-tolyl-furan-2-yl)-ethylamino]-4-methyl-pentanoic acid] | 0.1 to 0.5 |  | 
35 | CC(C)C[C@H](N[C@@H](Cn1ccn(Cc2cc(Cl)cc(Cl)c2)c1=O)C(=O)O)C(=O)O [LF, (S,S) 2-{1-Carboxy-2-[3-(3,5-dichloro-benzyl)-2-oxo-2,3-dihydro-imidazol-1-yl]-ethylamino}-4-methyl-pentanoic acid] | < 0.1 | 0.05 to 0.1 | 
36 | CC(C)C[C@H](N[C@@H](Cc1ccc(OCC2CCCCC2)cc1)C(=O)O)C(=O)O [KR, S,S-2-[1-Carboxy-2-(4-cyclohexylmethoxy-phenyl)-ethylamino]-4-methyl pentanoic acid] | 0.1 to 0.5 |  | 
37 | CC(C)C[C@H](N[C@@H](Cc1ccc(-c2ccc(C(F)(F)F)cc2)cc1)C(=O)O)C(=O)O [PC, (S,S)-2-[1-Carboxy-2-(4′-trifluoromethyl-biphenyl-4-yl)-ethylamino]-4-methyl-pentanoic acid] |  | 0.05 to 0.1 | Ki [3]: < 0.1 µM
